# Laboratory results from EPA's ToxValDB 9.5.
# Experiments:
# [1] = test system: Oryctolagus sp.
# [2] = test system: Bovidae; conditions: subchronic; duration: 57 days; oral; diet; no effects
# [3] = test system: Gallus gallus; conditions: subchronic, oral, diet
# [4] = test system: Sus scrofa; conditions: subchronic; duration: 42 days; oral; diet; M/F; Not specified; body weight
# [5] = test system: Pontoscolex corethrurus; conditions: acute; mortality
# [6] = test system: Colinus virginianus
# [7] = test system: Rattus norvegicus
# [8] = test system: Daphnia magna; conditions: acute, mortality
# [9] = test system: Apis mellifera; conditions: acute; oral; unspecified; mortality
# [10] = test system: Mus musculus; conditions: for NOAEL: chronic
# [11] = test system: Oncorhynchus mykiss
# [12] = test system: Tagia sp.; conditions: acute; mortality
# [13] = test system: Anas platyrhynchos; conditions: short-term; oral; feed; mortality
# [14] = test system: Canidae; conditions: Dog Other; for NOAEL: oral
# [15] = acute, duration: 96 hours, mortality
# [16] = subchronic, duration: 90 days, oral, hematological
# [17] = duration: 21 months, M, hematological
# [18] = duration: 23 months, F, hematological
smiles,measurement,setting,value
COC(=O)[C@H](Cc1ccccc1)NC(=O)[C@H](CC(=O)O)NCCCc1ccc(OC)c(O)c1.O,NOAEL,"[1]; reproduction developmental, duration: 22 days, oral, gavage, F, New Zealand, clinical signs",500 mg/kg-day
CSCCC(O)C(=O)[O-].CSCCC(O)C(=O)[O-].[Zn+2] (configuration not stated),LEL,[2],450 mg/kg-day
same,LEL,"[3]; duration: 8 weeks, clinical chemistry",450 mg/kg-day
same,LEL,"[3]; duration: 35 days, Chicken, body weight",450 mg/kg-day
same,LEL,[4],450 mg/kg-day
O=C(O)c1cn[nH]c1C(F)F [1H-3-Difluoromethylpyrazole-4-carboxylic acid],NOAEL,"[1]; reproduction developmental, body weight",300 mg/kg-day
COc1nc(C)nc(N)n1 [2-Methyl-4-amino-6-methoxy-s-triazine],LD50,"acute, dermal, F, mortality",1000 mg/kg
same,LC50,"acute, inhalation, mortality",> 5.2 µg/mL
CCC=C(C)C(=O)O [2-Methylpent-2-en-1-oic acid],LC50,[5],2040 mg/kg
"Nc1ccc(Cl)c(Cl)c1 [3,4-Dichloroaniline]",LD50,"[6]; acute, oral, mortality",99.1 mg/kg-day
CCCC(=O)C(CC)Sc1ccoc1C (configuration not stated) [3-(2-Methyl-3-furylthio)-4-heptanone],NOAEL,"subchronic, duration: 90 days",3.76 mg/kg-day
same,NOAEL,"[7]; subchronic, duration: 90 days, oral, diet",3.76 mg/kg-day
same,NOAEL,"[7]; subchronic, duration: 90 days, oral, diet, M/F, no effects",3.76 mg/kg-day
CSCc1ccsc1 [3-(Methylthio)methylthiophene],NOAEL,repeat dose other,0.29 mg/kg-day
same,NOAEL,"[7]; subchronic, duration: 90 days",0.29 mg/kg-day
"CC(=O)c1cc(C)sc1C [3-Acetyl-2,5-dimethylthiophene]",LC50,[8],6.95 µg/mL
COc1cc(CCC(C)=O)ccc1O [4-(4-Hydroxy-3-methoxyphenyl)-2-butanone],LC50,[5],346 mg/kg
"c1cnc2c(n1)CCCC2 [5,6,7,8-Tetrahydroquinoxaline]",LC50,[5],238 mg/kg
Cc1cccc2nccnc12 [5-Methylquinoxaline],LC50,[5],272 mg/kg
Oc1cccc2cccnc12 [8-Hydroxyquinoline],LD50,[9],> 68.6 µg/piece
same,LD50,"[6]; acute, oral, diet, mortality",> 1070 mg/kg-day
same,LD50,"[6]; acute, oral, mortality",311 mg/kg
same,LD50,"[10]; acute, oral, mortality",177 mg/kg
same,LC50,[11]; [15],2 µg/mL
same,NOAEL,"[1]; developmental, development",5 mg/kg-day
same,NOAEL,"[7]; chronic, duration: 2 years, body weight",73.3 mg/kg-day
same,NOAEL,[7]; [16],97.7 mg/kg-day
same,LC50,[12],> 409 mg/kg
CC/C=C\CCCCC=O [(Z)-Non-6-enal],LC50,[8],8 µg/mL
same,LC50,[5],191 mg/kg
CCN(CC)c1ccc(C(=C2C=CC(=[N+](CC)CC)C=C2)c2cc(O)c(S(=O)(=O)[O-])cc2S(=O)(=O)[O-])cc1.CCN(CC)c1ccc(C(=C2C=CC(=[N+](CC)CC)C=C2)c2cc(O)c(S(=O)(=O)[O-])cc2S(=O)(=O)[O-])cc1.[Ca+2] [Acid Blue 3],NOAEL,[10]; [17],500 mg/kg-day
same,NOAEL,[10]; [18],500 mg/kg-day
COC(=O)CCC(=O)O[C@H]1CC(C)(C)C(/C=C/C(C)=C/C=C/C(C)=C/C=C/C=C(C)/C=C/C=C(C)/C=C/C2=C(C)C(=O)[C@@H](OC(=O)CCC(=O)OC)CC2(C)C)=C(C)C1=O [Astaxanthin dimethylsuccinate],NOAEL,"[10]; duration: 80 weeks, oral, body weight",14 mg/kg-day
same,LEL,"[11]; chronic/long-term, duration: 8 weeks, oral, feed, no effects",908 mg/kg
"CCCCC(CC)COC(=O)C1CCC(C(=O)OCC(CC)CCCC)CC1 (configuration not stated) [Bis(2-ethylhexyl) cyclohexane-1,4-dicarboxylate]",NOAEL,"subchronic, duration: 90 days, oral, no effects",1000 mg/kg-day
"CCOC(=O)C(CC)C(C)=O (configuration not stated) [Butanoic acid, 2-ethyl-3-oxo-, ethyl ester]",NOAEL,"repeat dose other, development",600 mg/kg-day
"O=S(=O)([O-])c1cc(S(=O)(=O)[O-])c2c(N=Nc3ccc(S(=O)(=O)[O-])c4ccccc34)c(O)ccc2c1.[Na+].[Na+].[Na+] [C.I. Acid Red 18, trisodium salt]",NOAEL,"[10]; duration: 82 weeks, oral, diet, M/F, neurology",70 mg/kg-day
CCN(CC)c1ccc(C(=C2C=CC(=[N+](CC)CC)C=C2)c2cc(O)c(S(=O)(=O)[O-])cc2S(=O)(=O)[O-])cc1.[Na+] [C.I. Food Blue 5:2],NOAEL,[10]; [17],500 mg/kg-day
same,NOAEL,[10]; [18],500 mg/kg-day
CC(O)C(=O)[O-].CC(O)C(=O)[O-].[Ca+2] (configuration not stated) [Calcium lactate],LEL,"[3]; duration: 42 days, Chicken, no effects",30000 mg/kg-day
C1CCC(SSC2CCCCC2)CC1 [Dicyclohexyl disulfide],NOAEL,"subchronic, duration: 90 days, oral",0.23 mg/kg-day
c1ccc(Nc2ccccc2)cc1 [Diphenylamine],LC50,[13],2290 mg/kg-day
same,NOAEL,"[14]; chronic, duration: 1 years, clinical chemistry",10 mg/kg-day
same,NOAEL,"[14]; chronic, duration: 1 years, hematological",10 mg/kg-day
same,NOAEL,"[14]; subchronic, duration: 90 days, clinical chemistry",10 mg/kg-day
same,NOAEL,"[14]; subchronic, duration: 90 days, hematological",10 mg/kg-day
same,LD50,"[6]; acute, oral, mortality",> 2250 mg/kg-day
same,NOEC,[8]; duration: 48 hours,< 0.38 mg/L
same,LC50,[11]; [15],2.2 µg/mL
same,NOEC,[11]; [15],0.71 mg/L
same,NOAEL,"[7]; chronic, duration: 2 years, hematological",7.5 mg/kg-day
same,NOAEL,"[7]; subchronic, duration: 90 days, oral, clinical chemistry",9.6 mg/kg-day
same,NOAEL,[7]; [16],9.6 mg/kg-day
CCO [Ethanol],LC50,"[11]; acute, duration: 24 hours, mortality",11200 µg/mL
same,NOAEL,"[7]; subchronic, duration: 90 days, oral, gavage, organ weight",1730 mg/kg-day
CCCSP(=O)(OCC)SCCC [Ethoprop],NOEL,"[6]; reproduction developmental, mortality",0.088 mg/kg-day
same,NOEL,[7]; chronic,7.3 mg/kg-day
CCOc1ccc2c(c1)C(C)=CC(C)(C)N2 [Ethoxyquin],NOEL,"[14]; subchronic, duration: 90 days, clinical signs",2 mg/kg-day
same,LC50,"[6]; acute, oral, diet, mortality",> 2420 mg/kg-day
same,NOEC,"[6]; short-term, oral, diet",1500 mg/kg-day
same,LC50,[11]; [15],18 µg/mL
same,LD50,"[7]; acute, oral, mortality",1730 mg/kg-day
